Legend:
[1] = Dynamic light scattering: hydrodynamic size and polydispersity index (PDI) of nanoparticles; assay type: physicochemical; settings: for Pdl / Z-average diameter: GSCG1,2-RHL N:P 0.6:1, DOTMA:DOPE nanoparticles, coating mol ratio 2.06 to mRNA P where coated; for Polydispersity Index (PDI): peptide dendrimer, lipid and mRNA complexes, N:P 8:1, DOTMA/DOPE w/w 10:1 to mRNA
Description: (§1) The hydrodynamic size was measured using the dynamic light scattering (DLS) technique. DLS is a very sensitive, non-invasive method to measure size and size distribution of nanoparticles in a liquid. […] Analysing these intensity fluctuations allows us to calculate the velocity of the Brownian motion. The size of the nanoparticles can be determined by using the Stokes-Einstein relationship. With the latest technology, it can measure nanoparticles smaller than 1 nm.
PDI is used to estimate the average uniformity of a particle solution, The method of cumulants is a standard technique for analysing DLS data on sample polydispersity. PDI is a number calculated from a 2 parameter fit to the correlation data (the cumulants analysis). The cumulants analysis is used to evaluate the autocorrelation function generated by a DLS experiment. The calculation is defined in ISO 13321 and ISO 22412. PDI values greater than 0.7 indicate that the sample has a very broad size distribution and is not suitable for the DLS technique. The calculations for these parameters are defined in the ISO standard document 13321:1996 E and ISO 22412:2008.
as §1, with “Size, zeta potential and polydispersity index (PDI) measurement: The hydrodynamic” for “The hydrodynamic”, “scattering (DLS) technique using the Zetasizer Advance Series—Pro (Malvern Panalytical Ltd, Malvern, UK) according to the manufacturer's instructions. DLS is” for “scattering (DLS) technique. DLS is”
The data obtained with DLS measurements can also be used to calculate the PDI of particle in solution. PDI is used to estimate the average uniformity of a particle solution. The method of cumulants is a standard technique for analysing DLS data on sample polydispersity. PDI is a number calculated from a 2 parameter fit to the correlation data (the cumulants analysis). The cumulants analysis is used to evaluate the autocorrelation function generated by a DLS experiment. The calculation is defined in ISO 13321 and ISO 22412. PDI values greater than 0.7 indicate that the sample has a very broad size distribution and is not suitable for the DLS technique. The calculations for these parameters are defined in the ISO standard document 13321:1996 E and ISO 22412:2008.
To measure the size and PDI, the samples were diluted 16× in 25 mM HEPES buffer (5 μl sample+75 μl buffer). Parameters: reference material: polystyrene latex, dispersant: water, 25° C. The PDI measurements were measured in nanoparticles comprising a dendrimer:nucleic acid NP ratio of 8:1.

[2] = Zeta potential of nanoparticles (electrophoretic light scattering); assay type: physicochemical
Source text: Zeta potential is a measurement of the magnitude of the electrostatic or charge repulsion/attraction between particles. This can be determined by analysing particle mobility and charge (Zeta potential) using the Electrophoretic Light Scattering (ELS) technique.
Zeta potential is a measurement of the magnitude of the electrostatic or charge repulsion/attraction between particles. This can be determined by analysing particle mobility and charge (Zeta potential) using the Electrophoretic Light Scattering (ELS) technique. […] Parameters: reference material: polystyrene latex, dispersant: water, 25° C. The measurements of the zeta potential were carried out using the Zetasizer Advance Series—Pro (Malvern Panalytical Ltd, Malvern, UK) according to the manufacturer's instructions.

[3] = system: Mouse muscle cells (C2c12); experiment: eGFP expression (RFU/mg) in C2c12 muscle cells, muscle-targeting dendrimers; assay type: cell-based; settings: N:P=0.6:1, DOTMA:DOPE w/w 10:1, 24 hours post-transfection
Description: Cell lines, transfection reagents and mRNA. C2c12 cells were maintained in DMEM medium with 10% (v/v) FCS and 1% (v/v) L-glutamine in a humidified atmosphere in 5% CO2, and 37° C. The Alexa Fluor 488 tagged mRNA, expressing an eGFP, was purchased from RiboPro. The mRNA either expressing an eGFP or firefly luciferase was purchased from Trilink. DOTMA:DOPE, 1:1 (w/w) were obtained from Invitrogen or Encapsula NanoSciences LLC.
Transfection procedure. 24 hours before transfection, C2c12 cells were seeded in 96well plates in order to reach 70% confluence. mRNA transfection complexes were formed by mixing mRNA with the dendrimers in 25 mM HEPES buffer, then with DOTMA:DOPE in 25 mM HEPES buffer at 25° C. The transfection complexes were then overlaid to the cells in full growth medium. The cells were harvested 4 hours after transfection for FACS analysis or 24 hours post transfection for reporter genes assays.
Two variants (NTX2 and NTX3) of the peptide dendrimer GSCG1,2-RL, 3-LR ((LR)8(KRL)4(KRL)2KGSC-NH2) were made which include the ASSLNIA (SEQ ID NO:1) muscle targeting peptide. Transfection of muscle cells with GSCG1,2-RL, 3-LR, NTX2 ((LR)8(KRL)4(KRL)2[…](Acp)-NH2) or NTX3 ((LR)8(KRL)4(KRL)2[…](Acp)-NH2) was performed using eGFP mRNA and transfection efficiency was assayed using either flow cytometry or the transgene expression assay. […]
Transgene expression assay: The cells were washed twice with PBS and incubated with 50 ul of 1× M-PER lysis buffer (Thermo 11874111). […] 40 ul of lysate from each well was transferred to all black 96 well plates for quantification of eGFP relative fluorescence unit (RFU), absorbance at 535 nm, using Molecular devices SpectraMax iD5.
Protein content determination: The protein content of each cell lysate was determined by mixing the lysate (25 μL) with Pierce™ BCA Protein Assay Kit (200 ul, Thermo Scientific). After 30 minutes of 37° C. incubation in at dark, absorbance was measured at 562 nm with Molecular devices SpectraMax iD5 and converted to protein concentration using a BSA standard curve. […]

[4] = GSCG1,2-RHL N:P 0.6:1, DOTMA:DOPE nanoparticles, coating mol ratio 2.06 to mRNA P where coated
[5] = GSCG1,2-RHL N:P 0.6:1, DOTMA/DOPE nanoparticles coated at 2.06:1 (dendrimer to mRNA)
[6] = GSCG1,2-RHL N:P 0.6:1, DOTMA/DOPE nanoparticles coated at 2.72:1 (dendrimer to mRNA)

Polydispersity Index (PDI) [1]	Substance	further results
	(Ac-EEEE)2KGSGGSGGSACDCRGDCFCG-NH2 (Disulfide bridges: C1-C4, C2-C3)	Pdl [1]: 0.20; Z-average diameter [1]: 191 nm; zeta potential [2, 4]: −31.9 mV
0.417	(RL)8(KRL)4(KLR)2KGSC-NH2 [GSCG1-LR, 2,3-RL]	
	(Ac-EEEE)2KGSGGSGGSC-NH2	PDI [1, 5]: 0.12; size [1, 5]: 166 nm; PDI [1, 6]: 0.13; size [1, 6]: 169 nm; Pdl [1]: 0.16; Z-average diameter [1]: 165 nm; zeta potential [2, 5]: ~33.2 mV; zeta potential [2, 6]: ~35.4 mV; zeta potential [2, 4]: −29.3 mV
0.363	(LR)8(KRL)4(KRL)2KRHC-NH2 [RHCG1,2-RL, 3-LR]	
0.257	(LR)8(KRL)4(KRL)2KRYM-NH2 [RYMG1,2-RL, 3-LR]	
0.178	(QR)8(KRT)4(KRY)2KGSC-NH2 [GSCG1-RY, 2-RT, 3-QR]	
0.184	(LR)8(KRL)4(KRL)2KA-NH2 [AG1,2-RL, 3-LR]	
0.577	(LR)2KRHC-NH2 [RHCG1-LR]	
0.19	(MR)8(KRC)4(KRC)2KGSC-NH2 [GSCG1-RC, 2-RC, 3-MR]	
	(LR)4(KRL)2KRHCGAASSLNIA-(Acp)-NH2 [NTX5]	increase in eGFP expression compared to RHCG1-RL, 2-LR ([3]; FIG. 10): ˜two-fold
0.439	(LR)8(KR)4(KRLR)2KRHC-NH2 [RHCG1-RLR, 2-R, 3-LR]	
0.37	(LR)8(KR)4(KRLRL)2KRHC-NH2 [RHCG1-RLRL, 2-R, 3-LR]	
0.287	(LRLR)8(KLRLR)4(KLRLR)2KGSC-NH2 [GSCG1,2,3-LRLR]	
0.429	(R)8(KRL)4(KRLR)2KRHC-NH2 [RHCG1-RLR, 2-RL, 3-R]	
0.213	(LR)8(KRL)4(KRL)2KYM-NH2 [YMG1,2-RL, 3-LR]	
0.396	(R)8(KR)4(KR)2KRHC-NH2 [RHCG1,2,3-R]	
	(RLR)2KRHC-NH2 [RHCG1-RLR]	PDI ([1]; Table 7, first generation dendrimers for mixed dendrimer nanoparticles): 0.766
0.452	(FR)8(KRQ)4(KRW)2KGSC-NH2 [GSCG1-RW, 2-RQ, 3-FR]	

Polydispersity Index (PDI) [1]	Substance	further results
0.401	(LR)8(KRL)4(KRL)2KRFW-NH2 [RFWG1,2-RL, 3-LR]	
0.242	(RL)8(KLR)4(KLR)2KGSC-NH2 [GSCG1,2-LR, 3-RL]	
0.158	(LR)8(KRL)4(KRE)2KGSC-NH2 [GSCG1-RE, 2-RL, 3-LR]	
0.252	(R)4(KR)2KRHC-NH2 [RHCG1,2-R]	
0.241	(lR)8(KrL)4(KRL)2KGSC-NH2 [GSCG1-Rl, 2-rL, 3-lR]	
0.246	(lr)8(krl)4(krl)2kgsc-NH2	
0.289	(LR)8(KRL)4(KRL)2KGSCRHCRFWRYM-NH2 [LinearG1,2-RL, 3-LR]	
0.189	(LRLR)4(KLRLR)2KGSC-NH2 [GSCG1,2-LRLR]	
0.277	(WR)8(KRM)4(KRF)2KGSC-NH2 [GSCG1-RF, 2-RM, 3-WR]	
0.403	(BR)8(KRB)4(KRX)2KGSC-NH2 [GSCG1-RX, 2-RB, 3-BR]	
0.272	(LR)8(KLR)4(KLR)2KGSC-NH2 [GSCG1,2,3-LR]	
0.286	(LR)8(DabRL)4(DabRL)2DabGSC-NH2	
	(LR)8(KRL)4(KRL)2KGSCGAASSLNIA(Acp)-NH2 [NTX2]	increase in eGFP expression compared to GSCG1,2-RL, 3-LR ([3]; FIG. 9): two-fold
0.214	(RLR)4(KRLR)2KRHC-NH2 [RHCG1,2-RLR]	
0.126	(HK)8(KKH)4(KKL)2KGSC-NH2 [GSCG1-KL, 2-KH, 3-HK]	
0.087	(RR)4(KLL)2KGSC-NH2 [GSCG1-LL, 2-RR]	
0.409	(YR)8(KRT)4(KRQ)2KGSC-NH2 [GSCG1-RQ, 2-RT, 3-YR]	
0.299	(RLR)8(KRLR)4(KRLR)2KRHC-NH2 [RHCG1,2,3-RLR]	
